Reference: patent US20070141120A1, “Peptide having an ace inhibiting effect” (priority 2003, published 2007)
Peptide text beside a SMILES is read from it.

What was measured:
[1] = Stability during exposure to human serum (LC-MS); conditions: 37° C., up to 360 min, peptide mixtures
Method: Samples of 1.5 ml were collected in eppendorf vials at each of the time points. […] Samples were subsequently incubated for 5 min at 100° C. and then centrifugated in an IEC Micromax RF centrifuge (Boom BV Meppel) at 10.000 rpm for 20 minutes. The supernatant was collected in eppendorf vials and stored at −20° C. for further analysis. Experiments were performed in triplicate.
(§1) All measurements were carried out on a Waters Quattro-II or Quattro-Ultima triple quadrupole mass spectrometer. The LC separation was carried out at 25° C. on a Inertsil 5 ODS3 column, 150×2.1 mm, packed with 3 μm particles (Chompack) using 0-50% acetonitrile/0.1% (v/v) TFA. For analyses, 5 μl sample was injected onto the column. The flow rate through the column was 0.2 ml/min. The total flow after post-column makeup was 0.05 ml/min and contained a 7/3 (v/v) mixture of propionic acid and propanol-2. Gradient effluent was analysed using MRM mass spectrometry in positive-ESI mode. Capillary voltage was 4 kV. Source and nebulizer temperature were 100° C. and 250° C., repsectively. Drying and nebuliser gas flow were 300 l/h and 17 l/h, respectively. Collision gas was argon at a pressure of 7.9 e-4 mbar.

HUVEC cells = assay: Stability during exposure to HUVEC cells (LC-MS); conditions: up to 120 min, peptide mixtures
Caco-2 cells = assay: Stability during exposure to Caco-2 cells (LC-MS); conditions: up to 360 min, peptide mixtures
Method: Caco-2 cells were obtained from American Type Culture Collection (ATCC) and used in experiments at passage 30-40. Cells were cultured in 75 cm^2 culture flasks (Corning Costar, Badhoevedorp, The Netherlands). The culture medium consisted of DMEM (high glucose, with L-glutamine) supplemented with 20% (v/v) foetal bovine serum, 1% (v/v) penicillin/streptomycin solution and 1% (v/v) NEAA. Cells were maintained at 37° C. in a humidified atmosphere of 5% CO2 in air. For stability experiments, cells were seeded on 12 well cell culture plates (Costar, Badhoevedorp, The Netherlands) and cultured for at least 21 days.
Cells were cultured in 12-well plates. Peptide mixtures were added to culture medium without foetal bovine serum, but containing 20% (v/v) solid phase extracted foetal bovine serum. […] For Caco-2 cells, 330 μl medium containing 0.1, 1 and 10 μg/ml peptide was added to each well of the culture plate. Three times 110 μl medium was collected at 0, 5, 10, 20, 30, 60, 90, 180 and 360 min of incubation. Experiments were performed in triplicate and all samples were directly placed on dry-ice and stored at −20° C. […] Wells without cells served as controls.
as §1

[2] = in sour milk, hypertensive humans, placebo-controlled; cited from earlier work
ACE [3] = assay: ACE-inhibition assay 2: modified Matsui assay; type: biochemical; conditions: substrate Hip-His-Leu, pH 8.3, 37° C., 30 min
Method: This ACE inhibition activity was assayed according to the method of Matsui et al. (Matsui, T. et al. (1992) Biosci. Biotech. Biochem. 56: 517-518) with the modifications described below.
For each sample 75 μl 3 mM hippuryl histidine leucine (Hip-His-Leu, Sigma chemicals Co.; the chemical was dissolved in 250 mM Borate containing 200 mM NaCl, pH 8.3); 20 μl 0.1 U/ml ACE (obtained at Sigma) or H2O, and 25 μl sample or H2O were mixed (see Table 1). The mixtures were incubated at 37° C. and stopped after 30 min by adding 125 μl 0.5 M HCl. Subsequently, 225 μl bicine/NaOH solution (1 M NaOH:0.25 M bicine (4:6)) was added, followed by 25 μl 0.1 M TNBS (2,4,6-Trinitrobenzenesulfonic acid, Fluka, Switzerland; in 0.1 M Na2HPO4). After incubation for 20 min. at 37° C., 4 ml 4 mM Na2SO3 in 0.2 M NaH2PO4 was added and the absorbance at 416 nm was measured with UV/Vis spectrophotometer (Shimadzu UV-1601 with a CPS controller, Netherlands).
The amount of ACE inhibition (ACEI) activity was calculated as a percentage of inhibition compared with the conversion rate of ACE in the absence of an inhibitor: ACEI (%)=(((C1−C2)−(S1−S2))/(C1−C2))*100 (1)
C1=Absorbance without ACE inhibitory component (=max. ACE activity) [AU].
C2=Absorbance without ACE inhibitory component and without ACE (background) [AU].
S1=Absorbance in the presence of ACE and the ACE inhibitory component [AU].
S2=Absorbance in the presence of the ACE inhibitory component, but without ACE [AU].

ACE [4] = target: ACE (Homo sapiens, UniProt P12821); assay: ACE-inhibition assay 1: enzyme based assay (EBA); type: biochemical; conditions: substrate Abz-FRK-(Dnp)P-OH, pH 7.0, fluorescence
Sequence of ACE (Homo sapiens, UniProt P12821) (P12821 30-1306, species assumed): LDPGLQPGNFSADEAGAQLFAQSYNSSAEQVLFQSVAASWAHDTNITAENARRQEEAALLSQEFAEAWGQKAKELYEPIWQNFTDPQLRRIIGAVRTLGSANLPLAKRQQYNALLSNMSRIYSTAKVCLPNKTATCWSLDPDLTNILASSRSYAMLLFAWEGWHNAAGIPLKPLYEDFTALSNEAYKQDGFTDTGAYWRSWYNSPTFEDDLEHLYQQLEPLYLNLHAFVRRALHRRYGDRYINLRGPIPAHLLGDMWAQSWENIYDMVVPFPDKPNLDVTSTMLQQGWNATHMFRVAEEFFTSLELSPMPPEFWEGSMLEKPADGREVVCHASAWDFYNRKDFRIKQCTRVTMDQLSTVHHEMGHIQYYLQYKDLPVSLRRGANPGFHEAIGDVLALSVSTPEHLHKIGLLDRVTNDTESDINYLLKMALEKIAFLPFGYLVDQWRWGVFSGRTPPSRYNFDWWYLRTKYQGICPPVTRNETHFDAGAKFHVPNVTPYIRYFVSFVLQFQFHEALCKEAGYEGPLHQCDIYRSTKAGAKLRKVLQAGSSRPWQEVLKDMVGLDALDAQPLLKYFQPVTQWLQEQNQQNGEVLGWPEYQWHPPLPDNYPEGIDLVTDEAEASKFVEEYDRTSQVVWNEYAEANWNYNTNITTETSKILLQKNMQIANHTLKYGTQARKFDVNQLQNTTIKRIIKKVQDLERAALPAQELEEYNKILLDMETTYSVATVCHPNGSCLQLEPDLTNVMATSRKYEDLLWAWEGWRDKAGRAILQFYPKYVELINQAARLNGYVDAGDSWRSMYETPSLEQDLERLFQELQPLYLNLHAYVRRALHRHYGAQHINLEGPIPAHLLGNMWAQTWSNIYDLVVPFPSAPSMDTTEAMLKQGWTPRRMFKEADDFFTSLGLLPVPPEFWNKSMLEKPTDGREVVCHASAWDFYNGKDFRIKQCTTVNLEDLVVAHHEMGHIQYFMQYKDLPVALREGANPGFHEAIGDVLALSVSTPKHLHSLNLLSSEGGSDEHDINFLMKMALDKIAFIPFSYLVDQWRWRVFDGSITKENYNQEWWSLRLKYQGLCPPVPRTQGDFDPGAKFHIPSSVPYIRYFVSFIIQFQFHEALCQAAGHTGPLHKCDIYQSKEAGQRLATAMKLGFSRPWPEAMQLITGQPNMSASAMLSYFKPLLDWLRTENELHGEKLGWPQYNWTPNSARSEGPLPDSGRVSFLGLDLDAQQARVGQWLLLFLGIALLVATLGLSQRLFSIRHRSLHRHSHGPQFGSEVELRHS
Method: ACE and a synthetic substrate (Abz-FRK-(Dnp)P-OH) were used in the ACE-inhibition assay performed in white optiplate-96 microplates (Packard Bioscience). The substrate was a kind gift of Adriana K. Carmona (Dept. of Biophysics, Escola Paulista de Medivina, Universidae Federal de Sao Paulo, Brazil). Stock solutions of Abz-FRK-(Dnp)P-OH were prepared in DMSO. […] The assay buffer composition was 100 mM tris/HCl buffer pH 7.0 containing 100 mM NaCl. Forty μl sample solution in assay buffer was added to each well. In case of the controls only buffer was added. The samples were measured in threefold in a fluorophotometer (Fluostar, BMG labtechnologies). […] The ACE activity was measured for 10 cycles (about 10 minutes) by measuring the fluorescence at λex=320 nm and ξem=420 nm. The raw data was converted to the slope/sec and the ACE inhibition activity was calculated using the equation below. ACE inhibition (%)=[1−(Smean−Bmean)/(Cmean−Bmean)]*100
Bmean=average result of background (substrate)

[5] = In vitro gastrointestinal digestion (GI conditions); conditions: simulated gastric fluid pH 3.5 60 min, then intestinal fluid pH 6.8 120 min, 37° C.
Method: The stability of peptides in the human gastrointestinal tract was studied by subjecting fermented or hydrolysed milk proteins to typical conditions in the stomach and small intestine. Gastric conditions were mimicked by dissolving 80 ml fermented or hydrolysed milk protein in 820 ml water contianing 2.0 g NaCl, 2.9 g pepsin and 0.45 g Amano Lipase F-AP15 from Rhizopus oryzae. The fluid was adjusted to pH 3.5 with HCl, stirred with a peddle (50 rpm) and kept at 37° C. for 60 min. […] The simulated intestinal fluid was stirred with a peddle (50 rpm) and kept at 37° C. for 120 min. Samples were collected at different time points during the in vitro gastrointestinal digestion. After collection, samples were directly heated at 95° C. for 30 min and subsequently stored at −20° C.

| Stability, Serum [1] | Stability, HUVEC (HUVEC cells) | Stability, Caco-2 (Caco-2 cells) | IC50 (ACE [3]) [µM] | IC50 (ACE [4]) [µM] | Stability, GI conditions [5] | Compound | Blood pressure effect [2] |
| --- | --- | --- | --- | --- | --- | --- | --- |
| +/− | − | +/− |  |  |  | CC(C)[C@H](N)C(=O)N[C@@H](Cc1ccccc1)C(=O)O [VF] (H-Val-Phe-OH; N-terminus and C-terminus assumed) |  |
| − | − | − | 1 | 4 |  | CC(C)[C@H](N)C(=O)N[C@@H](C)C(=O)N1CCC[C@H]1C(=O)O [VAP] (H-Val-Ala-Pro-OH; N-terminus and C-terminus assumed) |  |
| − | +/− | − |  | > 50 |  | CC(C)C[C@H](NC(=O)[C@@H]1CCCN1)C(=O)N1CCC[C@H]1C(=O)O [PLP] (H-Pro-Leu-Pro-OH; N-terminus and C-terminus assumed) |  |
| +/− | + | − | 7 | 10 |  | CSCC[C@H](N)C(=O)N1CCC[C@H]1C(=O)N1CCC[C@H]1C(=O)O [MPP] (H-Met-Pro-Pro-OH; N-terminus and C-terminus assumed) |  |

The remaining lines, values behind:

| Compound | Stability, Serum [1] | Stability, HUVEC (HUVEC cells) | Stability, Caco-2 (Caco-2 cells) | IC50 (ACE [3]) [µM] | IC50 (ACE [4]) [µM] | Stability, GI conditions [5] | Blood pressure effect [2] |
| --- | --- | --- | --- | --- | --- | --- | --- |
| CC(C)[C@H](N)C(=O)N1CCC[C@H]1C(=O)N1CCC[C@H]1C(=O)O [VPP] |  |  |  |  |  |  | blood pressure lowering effect |
| CC(C)C[C@H](NC(=O)[C@@H](NC(=O)[C@@H](N)CCCCN)C(C)C)C(=O)N1CCC[C@H]1C(=O)N[C@H](C(=O)N1CCC[C@H]1C(=O)O)C(C)C [KVLPVP] (H-KVLPVP-OH; N-terminus and C-terminus assumed) | − | − | − | 2 |  |  |  |
| N[C@@H](CS)C(=O)N1CCC[C@H]1C(=O)N1CCC[C@H]1C(=O)O [CPP] (H-Cys-Pro-Pro-OH; N-terminus and C-terminus assumed) |  |  |  | 4 | 5 |  |  |
| C[C@@H](O)[C@H](N)C(=O)N1CCC[C@H]1C(=O)N1CCC[C@H]1C(=O)O [TPP] (H-Thr-Pro-Pro-OH; N-terminus and C-terminus assumed) | +/− | + | + | 15 | 35 |  |  |
| N[C@@H](Cc1ccccc1)C(=O)N[C@@H](Cc1ccc(O)cc1)C(=O)O [FY] (H-Phe-Tyr-OH; N-terminus and C-terminus assumed) | + | − | +/− | 10 | 20 |  |  |
| NCCCC[C@H](N)C(=O)N1CCC[C@H]1C(=O)N1CCC[C@H]1C(=O)O [KPP] (H-Lys-Pro-Pro-OH; N-terminus and C-terminus assumed) |  |  |  |  | > 50 |  |  |
| CC[C@H](C)[C@H](NC(=O)[C@@H]1CCCN1)C(=O)N1CCC[C@H]1C(=O)O [PIP] (H-Pro-Ile-Pro-OH; N-terminus and C-terminus assumed) | − | +/− | − |  | > 50 |  |  |
| CC[C@H](C)[C@H](N)C(=O)N1CCC[C@H]1C(=O)N1CCC[C@H]1C(=O)O [IPP] | +/− | + | − |  |  | + | blood pressure lowering effect |
